Laboratory results published in the NIST ThermoML archive (doi:10.1016/j.jct.2019.05.023).
± gives the expanded uncertainty stated by the source.

Experiment: xn = mol fraction of the nth substance listed
Conditions: 101.3 kPa, Liquid; for speed of sound: Frequency=3 MHz, Single path-length method; for mass density: Vibrating tube method

CCOCCO [2-ethoxyethan-1-ol] + CCn1cc[n+](C)c1.O=S(=O)([O-])C(F)(F)F
Conditions	mass density, 298.15 K [kg/m3]	mass density, 303.15 K [kg/m3]	mass density, 308.15 K [kg/m3]	mass density, 313.15 K [kg/m3]	mass density, 318.15 K [kg/m3]	speed of sound, 298.15 K [m/s]	speed of sound, 303.15 K [m/s]	speed of sound, 308.15 K [m/s]	speed of sound, 313.15 K [m/s]	speed of sound, 318.15 K [m/s]
x2 = 0	926 ± 2	921 ± 2	917 ± 2	912 ± 2	907 ± 2	1304 ± 10	1287 ± 10	1270 ± 10	1252 ± 10	1234 ± 10
x2 = 0.067	981 ± 3	976 ± 3	971 ± 3	967 ± 3	962 ± 3	1321 ± 10	1305 ± 10	1289 ± 10	1272 ± 10	1256 ± 10
x2 = 0.133	1029 ± 2	1024 ± 2	1020 ± 3	1015 ± 2	1011 ± 3	1333 ± 10	1318 ± 10	1302 ± 10	1286 ± 10	1271 ± 10
x2 = 0.192	1066 ± 2	1062 ± 2	1058 ± 2	1053 ± 2	1049 ± 2	1344 ± 10	1329 ± 10	1314 ± 10	1299 ± 10	1283 ± 10
x2 = 0.268	1112 ± 2	1107 ± 2	1103 ± 2	1099 ± 2	1094 ± 2	1356 ± 10	1342 ± 10	1328 ± 10	1313 ± 10	1299 ± 10
x2 = 0.35	1157 ± 2	1152 ± 2	1148 ± 2	1144 ± 2	1139 ± 2	1369 ± 10	1355 ± 10	1342 ± 10	1328 ± 10	1315 ± 10
x2 = 0.428	1196 ± 2	1191 ± 2	1187 ± 2	1183 ± 2	1178 ± 2	1380 ± 10	1367 ± 10	1354 ± 10	1341 ± 10	1328 ± 10
x2 = 0.54	1245 ± 2	1241 ± 2	1237 ± 2	1233 ± 2	1228 ± 2	1395 ± 10	1383 ± 10	1370 ± 10	1358 ± 10	1346 ± 10
x2 = 0.609	1272 ± 2	1268 ± 2	1264 ± 2	1260 ± 2	1255 ± 2	1403 ± 10	1391 ± 10	1379 ± 10	1368 ± 10	1356 ± 10
x2 = 0.674	1295 ± 2	1291 ± 2	1287 ± 2	1283 ± 2	1278 ± 2	1411 ± 10	1399 ± 10	1387 ± 10	1376 ± 10	1364 ± 10
x2 = 0.734	1314 ± 2	1310 ± 2	1306 ± 2	1302 ± 2	1297 ± 2	1417 ± 10	1406 ± 10	1394 ± 10	1383 ± 10	1372 ± 10
x2 = 0.799	1332 ± 2	1328 ± 2	1324 ± 2	1320 ± 2	1315 ± 2	1424 ± 10	1412 ± 10	1401 ± 10	1390 ± 10	1379 ± 10
x2 = 0.884	1354 ± 2	1350 ± 2	1346 ± 2	1342 ± 2	1337 ± 2	1431 ± 10	1420 ± 10	1409 ± 10	1398 ± 10	1387 ± 10
x2 = 0.951	1371 ± 2	1367 ± 2	1363 ± 2	1359 ± 2	1354 ± 2	1437 ± 10	1425 ± 10	1414 ± 10	1403 ± 10	1392 ± 10

CCCOCCO [2-propoxyethanol] + CCn1cc[n+](C)c1.O=S(=O)([O-])C(F)(F)F
Conditions	mass density, 298.15 K [kg/m3]	mass density, 303.15 K [kg/m3]	mass density, 308.15 K [kg/m3]	mass density, 313.15 K [kg/m3]	mass density, 318.15 K [kg/m3]	speed of sound, 298.15 K [m/s]	speed of sound, 303.15 K [m/s]	speed of sound, 308.15 K [m/s]	speed of sound, 313.15 K [m/s]	speed of sound, 318.15 K [m/s]
x2 = 0	908 ± 2	903 ± 2	899 ± 2	895 ± 2	890 ± 2	1301 ± 10	1283 ± 10	1266 ± 10	1248 ± 10	1231 ± 10
x2 = 0.051	945 ± 3	940 ± 3	936 ± 3	931 ± 3	927 ± 3	1308 ± 10	1292 ± 10	1275 ± 10	1258 ± 10	1241 ± 10
x2 = 0.104	981 ± 2	976 ± 2	972 ± 2	968 ± 2	963 ± 2	1317 ± 10	1300 ± 10	1284 ± 10	1268 ± 10	1252 ± 10
x2 = 0.199	1042 ± 2	1037 ± 2	1033 ± 2	1029 ± 2	1024 ± 2	1331 ± 10	1316 ± 10	1301 ± 10	1286 ± 10	1271 ± 10
x2 = 0.241	1067 ± 2	1063 ± 2	1059 ± 2	1054 ± 2	1050 ± 2	1338 ± 10	1323 ± 10	1308 ± 10	1294 ± 10	1279 ± 10
x2 = 0.296	1098 ± 2	1094 ± 2	1089 ± 2	1085 ± 2	1081 ± 2	1346 ± 10	1332 ± 10	1318 ± 10	1304 ± 10	1289 ± 10
x2 = 0.416	1161 ± 2	1157 ± 2	1153 ± 2	1149 ± 2	1145 ± 2	1364 ± 10	1351 ± 10	1338 ± 10	1324 ± 10	1311 ± 10
x2 = 0.506	1204 ± 2	1200 ± 2	1196 ± 2	1192 ± 2	1187 ± 2	1377 ± 10	1364 ± 10	1352 ± 10	1339 ± 10	1327 ± 10
x2 = 0.606	1247 ± 2	1243 ± 2	1239 ± 2	1235 ± 2	1231 ± 2	1391 ± 10	1379 ± 10	1367 ± 10	1355 ± 10	1343 ± 10
x2 = 0.698	1284 ± 2	1280 ± 2	1276 ± 2	1272 ± 2	1268 ± 2	1404 ± 10	1392 ± 10	1381 ± 10	1369 ± 10	1357 ± 10
x2 = 0.808	1324 ± 2	1320 ± 2	1316 ± 2	1311 ± 2	1307 ± 2	1419 ± 10	1408 ± 10	1396 ± 10	1385 ± 10	1374 ± 10
x2 = 0.845	1336 ± 2	1332 ± 2	1328 ± 2	1324 ± 2	1320 ± 2	1424 ± 10	1413 ± 10	1402 ± 10	1390 ± 10	1379 ± 10
x2 = 0.898	1353 ± 2	1349 ± 2	1344 ± 2	1340 ± 2	1336 ± 2	1431 ± 10	1420 ± 10	1409 ± 10	1398 ± 10	1386 ± 10
x2 = 0.953	1369 ± 2	1365 ± 2	1361 ± 2	1357 ± 2	1353 ± 2	1438 ± 10	1427 ± 10	1416 ± 10	1405 ± 10	1394 ± 10
